Results on 1 compound are retold here after patent US12133895B2, “Biodegradable functional polycarbonate nanoparticle carries for delivering molecular cargo” (International Business Machines Corporation, priority 2018, dated 2024).

The nature of this data set: Oxidation (discoloration) of AMP in PBS. It is filed as physicochemical. To be noted: free AMP dissolved in PBS. From the text: FIG. 10 illustrates a diagram of example, non-limiting photos 1000 of a first solution of free AMP and a second solution of the second loaded polymer 602 having the exemplary structure depicted in FIG. 6 (e.g., conjugated with AMP) in accordance with one or more embodiments described herein. Repetitive description of like elements employed in other embodiments described herein is omitted for sake of brevity. As shown in the photos 1000, the right vial contains free AMP dispersed in PBS, and the left vial contains of the second loaded polymer 602 having the exemplary structure depicted in FIG. 6 (e.g., conjugated with AMP) dispersed in PBS. The various photos 1000 can show the state of the two solutions over a 360 minute time period.
Both solutions begin colorless, wherein the solutions become discolored in response to oxidation.

As to `CN1CCc2cccc3c2[C@H]1Cc1ccc(O)c(O)c1-3` [AMP, apomorphine], the onset of oxidation result is “nearly immediately”.
